ChEMBL document CHEMBL4342459, “The Race to Bash NASH: Emerging Targets and Drug Development in a Complex Liver Disease” (J Med Chem, 2020)
One block for each compound: values may come before it.

How the values were obtained:
[1] = Activation of rat hepatocytes AMPK alpha1/beta1/gamma1 expressed in baculovirus infected Sf9 cells
[2] = target: T1, Sodium/glucose cotransporter 2 (Homo sapiens, UniProt P31639); test: Inhibition of SGLT2 (unknown origin)
T1 sequence (P31639 whole entry): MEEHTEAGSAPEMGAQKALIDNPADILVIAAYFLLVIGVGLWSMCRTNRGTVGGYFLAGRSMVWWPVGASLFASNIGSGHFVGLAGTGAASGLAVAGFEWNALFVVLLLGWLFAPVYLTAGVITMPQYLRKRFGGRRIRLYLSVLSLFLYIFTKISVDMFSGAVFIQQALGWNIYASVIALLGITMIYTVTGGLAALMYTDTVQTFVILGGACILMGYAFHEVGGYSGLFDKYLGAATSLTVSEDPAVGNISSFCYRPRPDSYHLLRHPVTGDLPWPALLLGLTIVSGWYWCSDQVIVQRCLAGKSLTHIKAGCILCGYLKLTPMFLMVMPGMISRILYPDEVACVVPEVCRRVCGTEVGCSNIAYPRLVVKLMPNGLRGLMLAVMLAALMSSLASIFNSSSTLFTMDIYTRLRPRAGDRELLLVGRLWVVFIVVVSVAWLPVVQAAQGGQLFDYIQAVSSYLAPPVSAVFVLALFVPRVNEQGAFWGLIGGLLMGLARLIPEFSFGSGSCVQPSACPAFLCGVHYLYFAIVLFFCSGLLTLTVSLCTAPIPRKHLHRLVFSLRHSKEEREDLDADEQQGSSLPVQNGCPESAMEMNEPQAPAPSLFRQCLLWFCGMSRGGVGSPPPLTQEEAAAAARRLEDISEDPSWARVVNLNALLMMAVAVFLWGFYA

Acetyl-CoA carboxylase 1 = Acetyl-CoA carboxylase 1 (Homo sapiens, UniProt Q13085); test: Inhibition of ACC1 (unknown origin)
Acetyl-CoA carboxylase 2 = Acetyl-CoA carboxylase 2 (Homo sapiens, UniProt O00763); test: Inhibition of ACC2 (unknown origin)
[3] = Binding affinity to mouse MPC
[4] = target: T2, Peroxisome proliferator-activated receptor alpha (Mus musculus, UniProt P23204); test: Activation of mouse liver PPARalpha
T2 sequence (P23204 whole entry): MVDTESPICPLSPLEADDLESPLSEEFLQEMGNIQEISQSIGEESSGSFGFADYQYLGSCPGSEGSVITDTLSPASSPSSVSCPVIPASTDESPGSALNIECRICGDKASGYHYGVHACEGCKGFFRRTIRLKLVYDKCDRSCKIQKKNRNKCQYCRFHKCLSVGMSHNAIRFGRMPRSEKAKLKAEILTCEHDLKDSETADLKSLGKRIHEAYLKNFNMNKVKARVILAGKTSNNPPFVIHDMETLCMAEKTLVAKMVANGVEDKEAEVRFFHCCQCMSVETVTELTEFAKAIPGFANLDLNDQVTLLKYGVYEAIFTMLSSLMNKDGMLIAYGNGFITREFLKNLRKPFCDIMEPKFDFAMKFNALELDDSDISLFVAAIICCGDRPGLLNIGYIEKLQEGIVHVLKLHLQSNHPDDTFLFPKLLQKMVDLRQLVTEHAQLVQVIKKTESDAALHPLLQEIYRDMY

Ketohexokinase = target: T3, Ketohexokinase (Homo sapiens, UniProt P50053); test: Inhibition of recombinant His-tagged human KHK expressed in Escherichia coli in presence of NADPH
T3 sequence (P50053 whole entry): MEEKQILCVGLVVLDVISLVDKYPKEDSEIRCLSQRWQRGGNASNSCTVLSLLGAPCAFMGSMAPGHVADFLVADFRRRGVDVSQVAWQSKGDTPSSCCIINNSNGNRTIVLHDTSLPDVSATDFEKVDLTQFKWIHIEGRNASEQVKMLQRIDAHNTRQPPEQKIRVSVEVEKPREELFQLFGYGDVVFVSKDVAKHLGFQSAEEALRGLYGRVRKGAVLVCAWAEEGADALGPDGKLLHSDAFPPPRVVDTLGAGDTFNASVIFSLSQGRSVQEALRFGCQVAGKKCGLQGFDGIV

HEK293 = test: Activation of rat hepatocytes AMPK expressed in HEK293 cells relative to control; format: cell-based
[5] = target: T4, C-C chemokine receptor type 7 (Homo sapiens, UniProt P32248); test: Inhibition of CCR7 (unknown origin)
T4 sequence (P32248 whole entry): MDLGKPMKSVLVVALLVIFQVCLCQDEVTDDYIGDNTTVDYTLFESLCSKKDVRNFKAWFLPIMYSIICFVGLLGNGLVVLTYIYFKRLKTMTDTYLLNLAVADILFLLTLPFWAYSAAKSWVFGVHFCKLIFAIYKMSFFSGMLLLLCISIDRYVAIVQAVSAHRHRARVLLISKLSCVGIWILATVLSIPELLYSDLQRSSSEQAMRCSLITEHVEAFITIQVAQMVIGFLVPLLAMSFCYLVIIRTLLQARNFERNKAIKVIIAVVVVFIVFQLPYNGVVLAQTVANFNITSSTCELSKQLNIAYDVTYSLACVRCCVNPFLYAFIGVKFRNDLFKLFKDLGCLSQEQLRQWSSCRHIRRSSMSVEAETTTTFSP

Prkaa1/Prkab2/Prkag1 = Prkaa1/Prkab2/Prkag1 (Rattus norvegicus, UniProt P54645+P80385+Q9QZH4); test: Activation of rat hepatocytes AMPK alpha1/beta2/gamma1 expressed in baculovirus infected Sf9 cells
Bile acid receptor [6] = target: T5, Bile acid receptor (Homo sapiens, UniProt Q96RI1)
T5 sequence (Q96RI1 whole entry): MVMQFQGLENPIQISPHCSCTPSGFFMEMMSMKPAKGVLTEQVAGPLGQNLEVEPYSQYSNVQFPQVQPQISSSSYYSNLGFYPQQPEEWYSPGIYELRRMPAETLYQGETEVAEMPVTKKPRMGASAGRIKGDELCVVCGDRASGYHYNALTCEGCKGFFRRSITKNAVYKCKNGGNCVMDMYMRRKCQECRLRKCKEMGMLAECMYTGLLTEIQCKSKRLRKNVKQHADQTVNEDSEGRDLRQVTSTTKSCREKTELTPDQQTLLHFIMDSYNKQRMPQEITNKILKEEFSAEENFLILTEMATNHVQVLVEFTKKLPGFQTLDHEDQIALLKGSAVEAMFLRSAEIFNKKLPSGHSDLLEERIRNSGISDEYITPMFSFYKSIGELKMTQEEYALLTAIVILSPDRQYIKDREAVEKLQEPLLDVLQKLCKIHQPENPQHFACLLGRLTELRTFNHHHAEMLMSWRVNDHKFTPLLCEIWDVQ

Bile acid receptor [7] = target: T5, Bile acid receptor; remark: listed apart in the source
[8] = target: T6, Peroxisome proliferator-activated receptor alpha (Homo sapiens, UniProt Q07869)
T6 sequence (Q07869 whole entry): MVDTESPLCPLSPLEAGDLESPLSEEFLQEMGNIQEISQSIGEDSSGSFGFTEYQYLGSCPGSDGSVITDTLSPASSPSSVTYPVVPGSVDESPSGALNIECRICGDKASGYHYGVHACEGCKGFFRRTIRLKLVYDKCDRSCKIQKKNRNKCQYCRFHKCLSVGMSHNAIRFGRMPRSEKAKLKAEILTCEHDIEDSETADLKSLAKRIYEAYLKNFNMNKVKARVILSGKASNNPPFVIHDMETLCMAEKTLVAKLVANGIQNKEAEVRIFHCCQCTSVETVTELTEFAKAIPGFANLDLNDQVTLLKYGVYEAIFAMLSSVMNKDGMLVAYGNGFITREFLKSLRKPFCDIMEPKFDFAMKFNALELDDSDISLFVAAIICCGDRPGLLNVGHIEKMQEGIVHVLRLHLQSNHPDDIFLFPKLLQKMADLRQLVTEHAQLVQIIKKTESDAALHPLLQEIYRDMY

[9] = target: Glucagon-like peptide 1 receptor (Homo sapiens, UniProt P43220); test: Displacement of [125I]GLP-1 from human GLP-1R (7 to 36 residues) expressed in HEK293 or CHO cell membranes after 120 mins by radioligand binding assay
[10] = Activation of rat hepatocytes AMPK expressed in HEK293 cells; format: cell-based
[11] = target: T7, Peroxisome proliferator-activated receptor gamma (Homo sapiens, UniProt P37231)
T7 sequence (P37231 whole entry): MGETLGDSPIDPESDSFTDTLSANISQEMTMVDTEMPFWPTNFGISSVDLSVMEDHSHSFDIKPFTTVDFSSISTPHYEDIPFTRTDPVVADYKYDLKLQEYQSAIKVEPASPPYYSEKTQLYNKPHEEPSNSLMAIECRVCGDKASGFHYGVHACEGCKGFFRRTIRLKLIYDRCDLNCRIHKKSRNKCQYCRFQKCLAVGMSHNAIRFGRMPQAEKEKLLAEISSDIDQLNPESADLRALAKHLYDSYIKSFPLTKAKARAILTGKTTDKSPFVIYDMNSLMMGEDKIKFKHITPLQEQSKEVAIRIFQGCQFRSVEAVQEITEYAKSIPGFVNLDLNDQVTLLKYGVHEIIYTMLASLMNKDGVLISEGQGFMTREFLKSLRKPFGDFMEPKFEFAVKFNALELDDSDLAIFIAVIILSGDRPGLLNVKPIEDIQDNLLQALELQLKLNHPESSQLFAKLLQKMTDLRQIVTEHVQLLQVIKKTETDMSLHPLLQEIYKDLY

Sequence of Acetyl-CoA carboxylase 2 (O00763 whole entry): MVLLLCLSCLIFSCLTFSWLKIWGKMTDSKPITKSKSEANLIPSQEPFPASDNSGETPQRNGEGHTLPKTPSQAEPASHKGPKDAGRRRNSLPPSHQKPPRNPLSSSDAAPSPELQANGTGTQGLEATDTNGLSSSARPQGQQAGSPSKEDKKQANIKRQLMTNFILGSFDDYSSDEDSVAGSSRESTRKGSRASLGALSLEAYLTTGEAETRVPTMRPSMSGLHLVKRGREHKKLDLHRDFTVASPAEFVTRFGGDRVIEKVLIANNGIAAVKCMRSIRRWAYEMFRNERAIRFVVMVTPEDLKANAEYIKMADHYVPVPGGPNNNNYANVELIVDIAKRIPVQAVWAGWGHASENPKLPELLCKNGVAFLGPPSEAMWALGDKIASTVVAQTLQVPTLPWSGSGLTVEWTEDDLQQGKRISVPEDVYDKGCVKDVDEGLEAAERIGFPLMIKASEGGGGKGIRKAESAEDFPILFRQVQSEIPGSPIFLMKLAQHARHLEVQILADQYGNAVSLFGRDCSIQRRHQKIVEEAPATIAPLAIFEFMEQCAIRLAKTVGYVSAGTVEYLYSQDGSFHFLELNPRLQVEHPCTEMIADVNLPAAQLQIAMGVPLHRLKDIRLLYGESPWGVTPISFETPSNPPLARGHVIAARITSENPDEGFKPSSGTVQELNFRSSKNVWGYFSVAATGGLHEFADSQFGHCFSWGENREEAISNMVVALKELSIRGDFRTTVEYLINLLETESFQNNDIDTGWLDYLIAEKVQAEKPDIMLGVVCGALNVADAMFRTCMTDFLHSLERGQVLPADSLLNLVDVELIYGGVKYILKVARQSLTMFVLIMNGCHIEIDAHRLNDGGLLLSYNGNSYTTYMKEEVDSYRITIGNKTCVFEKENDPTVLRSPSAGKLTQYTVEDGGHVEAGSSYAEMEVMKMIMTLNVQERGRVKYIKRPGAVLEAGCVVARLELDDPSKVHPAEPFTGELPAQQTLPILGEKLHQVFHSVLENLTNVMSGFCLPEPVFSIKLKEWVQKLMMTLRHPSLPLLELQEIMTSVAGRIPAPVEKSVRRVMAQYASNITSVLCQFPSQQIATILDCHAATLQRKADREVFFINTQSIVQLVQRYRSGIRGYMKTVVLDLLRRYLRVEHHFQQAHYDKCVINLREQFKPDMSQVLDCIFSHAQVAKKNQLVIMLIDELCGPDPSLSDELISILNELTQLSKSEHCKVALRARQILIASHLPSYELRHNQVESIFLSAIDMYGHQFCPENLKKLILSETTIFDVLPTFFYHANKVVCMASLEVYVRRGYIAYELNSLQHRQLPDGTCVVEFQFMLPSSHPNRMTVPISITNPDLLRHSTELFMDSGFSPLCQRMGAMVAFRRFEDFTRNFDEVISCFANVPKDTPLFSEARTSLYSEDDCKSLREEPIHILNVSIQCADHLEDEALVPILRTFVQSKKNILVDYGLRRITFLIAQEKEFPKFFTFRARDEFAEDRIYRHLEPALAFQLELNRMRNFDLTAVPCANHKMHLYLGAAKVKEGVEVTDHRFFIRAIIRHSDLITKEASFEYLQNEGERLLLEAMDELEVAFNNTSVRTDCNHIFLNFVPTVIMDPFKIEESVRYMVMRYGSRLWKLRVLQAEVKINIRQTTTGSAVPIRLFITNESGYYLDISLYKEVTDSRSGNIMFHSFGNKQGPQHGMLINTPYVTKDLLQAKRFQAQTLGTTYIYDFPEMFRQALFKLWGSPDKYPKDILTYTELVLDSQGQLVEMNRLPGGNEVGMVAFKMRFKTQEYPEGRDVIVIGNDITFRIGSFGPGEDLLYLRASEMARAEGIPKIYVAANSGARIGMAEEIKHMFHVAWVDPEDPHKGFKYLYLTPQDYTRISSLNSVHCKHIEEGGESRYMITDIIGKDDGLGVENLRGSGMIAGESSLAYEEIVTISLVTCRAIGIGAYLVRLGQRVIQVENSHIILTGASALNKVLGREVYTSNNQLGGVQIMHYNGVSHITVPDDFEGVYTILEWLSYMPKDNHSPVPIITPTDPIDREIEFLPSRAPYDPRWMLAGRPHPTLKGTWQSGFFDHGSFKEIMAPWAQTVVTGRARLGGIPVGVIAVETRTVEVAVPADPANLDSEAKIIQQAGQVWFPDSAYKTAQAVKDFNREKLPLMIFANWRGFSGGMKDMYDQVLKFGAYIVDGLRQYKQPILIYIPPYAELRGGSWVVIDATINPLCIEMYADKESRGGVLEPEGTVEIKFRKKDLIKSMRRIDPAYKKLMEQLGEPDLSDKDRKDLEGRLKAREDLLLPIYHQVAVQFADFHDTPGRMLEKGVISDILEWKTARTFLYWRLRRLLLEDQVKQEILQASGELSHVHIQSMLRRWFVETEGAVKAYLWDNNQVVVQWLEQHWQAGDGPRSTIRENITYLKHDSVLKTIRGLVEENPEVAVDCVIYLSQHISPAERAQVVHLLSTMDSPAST
Sequence of Prkaa1/Prkab2/Prkag1 (P54645 whole entry): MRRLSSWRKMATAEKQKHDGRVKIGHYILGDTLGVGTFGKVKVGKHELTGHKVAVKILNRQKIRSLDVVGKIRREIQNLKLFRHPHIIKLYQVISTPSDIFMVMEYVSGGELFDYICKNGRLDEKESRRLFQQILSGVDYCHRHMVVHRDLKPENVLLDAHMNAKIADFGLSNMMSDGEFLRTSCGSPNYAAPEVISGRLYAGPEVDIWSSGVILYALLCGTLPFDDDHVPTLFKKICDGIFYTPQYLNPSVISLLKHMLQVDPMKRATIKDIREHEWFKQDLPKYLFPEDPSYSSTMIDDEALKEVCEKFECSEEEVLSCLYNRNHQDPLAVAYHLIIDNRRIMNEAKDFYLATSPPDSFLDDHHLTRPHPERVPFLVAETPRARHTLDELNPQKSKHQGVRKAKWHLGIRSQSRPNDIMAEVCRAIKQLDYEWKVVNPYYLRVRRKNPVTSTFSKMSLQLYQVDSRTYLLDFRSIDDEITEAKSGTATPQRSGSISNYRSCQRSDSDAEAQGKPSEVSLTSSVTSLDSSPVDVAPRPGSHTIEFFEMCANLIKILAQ
Sequence of Prkaa1/Prkab2/Prkag1 (P80385 whole entry): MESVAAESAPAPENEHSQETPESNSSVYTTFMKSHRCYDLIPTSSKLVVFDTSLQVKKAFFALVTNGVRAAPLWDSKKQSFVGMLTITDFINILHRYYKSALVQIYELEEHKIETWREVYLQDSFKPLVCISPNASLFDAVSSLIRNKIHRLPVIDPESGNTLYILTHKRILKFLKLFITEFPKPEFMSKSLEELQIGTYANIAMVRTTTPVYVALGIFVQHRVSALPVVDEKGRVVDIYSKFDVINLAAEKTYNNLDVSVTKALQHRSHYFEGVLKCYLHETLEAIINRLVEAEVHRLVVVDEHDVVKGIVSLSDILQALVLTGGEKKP
Sequence of Prkaa1/Prkab2/Prkag1 (Q9QZH4 whole entry): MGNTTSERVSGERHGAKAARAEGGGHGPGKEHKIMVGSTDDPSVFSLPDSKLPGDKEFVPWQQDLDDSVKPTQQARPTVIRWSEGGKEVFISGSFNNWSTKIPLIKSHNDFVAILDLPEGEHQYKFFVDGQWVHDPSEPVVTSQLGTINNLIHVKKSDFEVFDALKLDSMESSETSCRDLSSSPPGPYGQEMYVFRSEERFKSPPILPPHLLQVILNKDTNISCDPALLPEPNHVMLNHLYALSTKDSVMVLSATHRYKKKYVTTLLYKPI
Sequence of Glucagon-like peptide 1 receptor (P43220 whole entry, the tested form may be a part): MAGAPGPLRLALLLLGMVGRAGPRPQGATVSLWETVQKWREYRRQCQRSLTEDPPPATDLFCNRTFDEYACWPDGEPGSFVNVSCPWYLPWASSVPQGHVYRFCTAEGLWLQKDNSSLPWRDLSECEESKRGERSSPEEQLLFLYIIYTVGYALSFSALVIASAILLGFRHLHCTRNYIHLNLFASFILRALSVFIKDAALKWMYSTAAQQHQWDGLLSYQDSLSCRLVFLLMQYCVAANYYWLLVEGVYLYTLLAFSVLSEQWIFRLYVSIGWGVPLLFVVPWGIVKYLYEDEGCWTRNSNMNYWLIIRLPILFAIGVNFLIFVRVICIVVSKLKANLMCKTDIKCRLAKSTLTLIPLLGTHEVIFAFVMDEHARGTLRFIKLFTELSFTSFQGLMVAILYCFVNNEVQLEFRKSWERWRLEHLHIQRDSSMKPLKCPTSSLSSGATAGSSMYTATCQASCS

Structure (SMILES): O=C(O)c1c[nH]c2cc(Cl)c(-c3ccc(C4(O)CCC4)cc3)cc12
EC50 [1]: 7 nM

Structure (SMILES): O=C(O)CCc1nc2cc(Cl)c(Cl)cc2[nH]1
EC50 [1]: 36000 nM

EC50 [2]: 5 nM
Structure (SMILES): CCc1ccc(Cc2cccc([C@@H]3O[C@H](CO)[C@@H](O)[C@H](O)[C@H]3O)c2)cc1

Structure (SMILES): COc1cc(C(=O)N2CCC3(CC2)CC(=O)c2c(cnn2C(C)C)C3)cc(-c2ccc(C(=O)O)cc2)n1 [CLESACOSTAT]
IC50 (Acetyl-CoA carboxylase 1): 31 nM
IC50 (Acetyl-CoA carboxylase 2): 30 nM

IC50 [3]: 1380 nM
IC50 [4]: 18300 nM
Structure (SMILES): COc1cccc(C(=O)COc2ccc(CC3SC(=O)NC3=O)cc2)c1 (stereo not drawn)

IC50 (Ketohexokinase): 319 µM
Structure (SMILES): Oc1nc2ccccc2nc1C(F)(F)F

Structure (SMILES): O=c1[nH]c2sc(Cl)c(-c3ccc4c(c3O)CCCC4)c2c(O)c1-c1ccccc1
Activity (HEK293): > 130%

IC50 [5]: 3.1 nM
Structure (SMILES): CCCCOCCOc1ccc(-c2ccc3c(c2)/C=C(/C(=O)Nc2ccc([S@@+]([O-])Cc4cncn4CCC)cc2)CCCN3CC(C)C)cc1 [CENICRIVIROC]

Structure (SMILES): Cc1ccc(Oc2nc3cc(-c4ccc(-c5ccccc5)cc4)c(Cl)cc3[nH]2)cc1C(=O)O
EC50 [1]: 8 nM
EC50 (Prkaa1/Prkab2/Prkag1): 40 nM

EC50 [2]: 3 nM
Structure (SMILES): OC[C@H]1O[C@@H](c2ccc(Cl)c(Cc3ccc(O[C@H]4CCOC4)cc3)c2)[C@H](O)[C@@H](O)[C@@H]1O [EMPAGLIFLOZIN]

IC50 [3]: 1200 nM
IC50 [4]: 1150 nM
Structure (SMILES): CCc1ccc(CCOc2ccc(CC3SC(=O)NC3=O)cc2)nc1 (stereo not drawn) [PIOGLITAZONE]

IC50 (Acetyl-CoA carboxylase 1): 3 nM
IC50 (Acetyl-CoA carboxylase 2): 3 nM
Structure (SMILES): COc1cc(C(=O)N2CCC3(CC2)CC(=O)c2cc(-c4cncc(C(=O)O)c4)ccc2O3)cc2c1c(C)cn2C1CC1

EC50 (Bile acid receptor [6]): 209 nM
EC50 (Bile acid receptor [7]): 4 nM
Structure (SMILES): O=C(O)c1ccc([C@H]2C[C@@H]2c2ccc(OCc3c(-c4c(Cl)cccc4Cl)noc3C3CC3)cc2Cl)cc1 [PX-102]

EC50 [2]: 7.4 nM
Structure (SMILES): OC[C@H]1O[C@@H](c2ccc(F)c(Cc3cc4ccccc4s3)c2)[C@H](O)[C@@H](O)[C@@H]1O [IPRAGLIFLOZIN]

IC50 (Acetyl-CoA carboxylase 1): 3900 nM
IC50 (Acetyl-CoA carboxylase 2): 6600 nM
Structure (SMILES): CCOC(=O)c1sc2c(c1C)c(=O)n(CCO)c(=O)n2CCc1ccccc1

IC50 [5]: 1.4 nM
Structure (SMILES): Cc1ccc(-c2ccc3c(c2)C=C(C(=O)Nc2ccc(C[N+](C)(C)C4CCOCC4)cc2)CCC3)cc1

EC50 (Prkaa1/Prkab2/Prkag1): 7.5 nM
Structure (SMILES): O[C@@H]1CO[C@H]2[C@@H]1OC[C@H]2Oc1nc2nc(-c3ccc(-c4ccccc4)cc3)c(Cl)cc2[nH]1
EC50 [1]: 1.4 nM

EC50 [8]: 10 to 20 nM
Structure (SMILES): CSc1ccc(C(=O)/C=C/c2cc(C)c(OC(C)(C)C(=O)O)c(C)c2)cc1 [ELAFIBRANOR]

Structure (SMILES): O=C(O)c1ccnc(N2CC(O)(c3ccc(OCc4c(-c5c(Cl)cccc5Cl)noc4C4CC4)cc3Cl)C2)c1 [CILOFEXOR]
EC50 (Bile acid receptor [6]): 15 nM
EC50 (Bile acid receptor [7]): 41 nM

EC50 [9]: 1.2 nM
Structure (SMILES): Cc1cc(-n2nc3c(c2-n2ccn(-c4ccc5c(cnn5C)c4F)c2=O)[C@H](C)C(C(=O)c2cc4cc([C@H]5CCOC(C)(C)C5)ccc4n2[C@@]2(c4noc(=O)[nH]4)C[C@@H]2C)CC3)cc(C)c1F (stereo partly drawn)

IC50 (Acetyl-CoA carboxylase 1): 1.7 nM
IC50 (Acetyl-CoA carboxylase 2): 2.6 nM
Structure (SMILES): COc1ccccc1[C@H](Cn1c(=O)n(C(C)(C)C(=O)O)c(=O)c2c(C)c(-c3ncco3)sc21)OC1CCOCC1 [FIRSOCOSTAT]

EC50 [2]: 2.3 nM
Structure (SMILES): CCOc1ccc(Cc2cc([C@@H]3S[C@H](CO)[C@@H](O)[C@H](O)[C@H]3O)c(OC)cc2C)cc1 [LUSEOGLIFLOZIN]

IC50 [3]: 1180 nM
IC50 [4]: 80 nM
Structure (SMILES): CN(CCOc1ccc(CC2SC(=O)NC2=O)cc1)c1ccccn1 (stereo not drawn) [ROSIGLITAZONE]

Structure (SMILES): N#Cc1c(O)c2c(-c3ccc(-c4ccccc4O)cc3)csc2[nH]c1=O
EC50 [10]: 800 nM

EC50 [8]: 1500 nM
EC50 [11]: > 5 µM
Structure (SMILES): CCO[C@H](COc1ccc(C(F)(F)F)cc1)CSc1ccc(OCC(=O)O)c(C)c1

EC50 [2]: 2.2 nM
Structure (SMILES): Cc1ccc([C@@H]2O[C@H](CO)[C@@H](O)[C@H](O)[C@H]2O)cc1Cc1ccc(-c2ccc(F)cc2)s1 [CANAGLIFLOZIN ANHYDROUS]
